{"source": "patent US7314858B2", "about": "“Retrocyclins: antiviral and antimicrobial peptides” (priority 2001, dated 2008)", "key": {"L. monocytogenes EGD": {"test_system": "L. monocytogenes EGD", "assay": "Two-stage radial diffusion assay", "assay_type": "cell-based, Listeria monocytogenes", "protocol": "(§1) FIG. 4. Effect of salt on antibacterial activity of circular minidefensins. Human retrocyclin and monkey RTD-1 were tested against our standard lab stains: E. coli ML-35p, P. aeruginosa MR 3007, L. monocytogenes EGD, and S. aureus 930918. The bars show MIC values±SEM values that resulted from 3-6 radial diffusion assays per organism and assay condition.\n(§2) The effects of NaCl on the antimicrobial activity of retrocyclin and RTD-1, from two-stage radial diffusion assays, are compared in FIG. 4."}, "E. coli ML-35p": {"test_system": "E. coli ML-35p", "assay": "Two-stage radial diffusion assay", "assay_type": "cell-based, Escherichia coli", "protocol": "as §1, §2"}, "HIV-1 strain IIIB": {"test_system": "HIV-1 strain IIIB", "assay": "HIV-1 IIIB infection of H9 cells, p24 antigen ELISA", "assay_type": "cell-based", "conditions": "H9 cells, IIIB (X4), peptide 10-20 μg/ml", "protocol": "FIG. 1. Circular minidefensins reduce HIV-1 infection of H9 cells. HIV-I strain IIIB (MOI=10^−2) was incubated with 2.5×10^5 H9 cells in the presence or absence of 20 μg/ml RTD-1, RTD-2 or RTD-3. p24 antigen release was monitored by ELISA on days 3, 6, and 9. Assay sensitivity=10 pg/ml.\nImmortalized CD4^+ H9 cells, which are permissive for infection with this strain, were maintained in RPMI supplemented with 10% heat-inactivated fetal calf serum (FCS), 10 mM HEPES, 2 mM glutamine, 100 U of penicillin/ml, and 10 μg of streptomycin/ml (R10 media). Cells (2.5×10^5/100 μl) were incubated with virus (multiplicity of infection (MOI)=10^−2) in the presence or absence of 20 μg/ml RTD-1, RTD-2 or RTD-3 for 3 hrs at 37° C./5% CO2. The cells were washed in R10 media, seeded in 48-well tissue culture plates in 1 ml R10 media, and incubated at 37° C./5% CO2 for 9 days. Aliquots of cell supernatant were removed at the specified time points and analyzed by a sensitive ELISA (DuPont NEN) that quantitates p24 antigen of HIV-1. The three circular rhesus minidefensins were similarly active, inhibiting HIV-1 by 100-1000 fold by 9 days post-inoculation (note the logarithmic scale).\nEither HIV-1-permissive H9 cells were used as targets, or primary CD4^+ lymphocytes from HIV-1-seronegative donors generated from freshly purified peripheral blood mononuclear cells (PBMC) stimulated with a CD3-CD8 bispecific monoclonal antibody. After approximately 7 days, when 98% of these cells co-expressed CD3 and CD4, they were infected with HIV-1 with or without retrocyclin or other test peptide. These cells were maintained in RPMI containing 10% FCS supplemented with 2 mM glutamine, 100 U of penicillin/ml, 10 μg of streptomycin/ml, and 50 U of interleukin 2/ml (R10-50 media).\nMature retrocyclin was prepared by a three-step process."}, "MTT cytotoxicity assay": {"assay": "MTT cytotoxicity assay", "assay_type": "cell-based, human", "conditions": "human, H9 cells", "protocol": "FIG. 8. Cytotoxicity of antimicrobial peptides against H9 cells. Retrocyclin, RTD-1 and PG-1 (a porcine-derived peptide with anti-HIV-1 activity) were tested for cytotoxicity using an MTT assay for cell proliferation. Note that the EC50 of Retrocyclin and RTD-1 were >100 μg/ml, concentrations well above their antiviral concentration.\nRetrocyclin is not cytotoxic. […] Retrocyclin was not hemolytic for human erythrocytes."}, "HIV-1 IIIB": {"test_system": "HIV-1 IIIB", "assay": "Activity of theta-defensins against HIV-1 IIIB (FIG. 21)", "assay_type": "cell-based", "from_the_text": "(§3) FIG. 21A-21B. Activity of theta-defensins against HIV-1 BAL; and HIV-1 IIIB.\n(§4) The data shown in FIGS. 21A and 21B illustrate the activity of these retrocyclin-related peptides against two different strains of HIV-1, BAL and IIIB. […] BAL and IIIB are widely studied, laboratory adapted strains of HIV."}, "HIV-1 BAL": {"test_system": "HIV-1 BAL", "assay": "Activity of theta-defensins against HIV-1 BAL (FIG. 21)", "assay_type": "cell-based", "from_the_text": "as §3, §4"}, "HIV-1": {"test_system": "HIV-1", "conditions": "cited from earlier work"}}, "note": "Where a SMILES comes first, the peptide text is derived from it. Bridges are numbered along the chain shown (N, C = ends)."}
{"molecule": "CC[C@H](C)[C@@H]1NC(=O)[C@@H]2CSSC[C@H](NC(=O)[C@H](CCCNC(=N)N)NC(=O)[C@@H]3CSSC[C@H](NC1=O)C(=O)N[C@@H]([C@@H](C)O)C(=O)N[C@@H](CCCNC(=N)N)C(=O)NCC(=O)N[C@@H](Cc1ccccc1)C(=O)N3)C(=O)N[C@@H](CC(C)C)C(=O)N[C@H]1CSSC[C@H](NC(=O)[C@H](C(C)C)NC(=O)CNC(=O)[C@H](CCCNC(=N)N)NC(=O)[C@H](CCCNC(=N)N)NC1=O)C(=O)N[C@@H](CCCNC(=N)N)C(=O)N2", "note": "[RTD-1, reference compound] (cyclo(GFCRCLCRRGVCRCICTR); disulfide 3-16, 5-14, 7-12)", "values": [{"measurement": "effect of salt on antimicrobial activity", "setting": "L. monocytogenes EGD; hypersalinity (175 mM NaCl)", "value": "only modestly inhibitory"}, {"measurement": "antimicrobial activity", "setting": "L. monocytogenes EGD; physiological (100 mM) NaCl", "value": "strong activity"}, {"measurement": "effect of salt on antimicrobial activity", "setting": "E. coli ML-35p; hypersalinity (175 mM NaCl)", "value": "only modestly inhibitory"}, {"measurement": "antimicrobial activity", "setting": "E. coli ML-35p; physiological (100 mM) NaCl", "value": "strong activity"}, {"measurement": "inhibition of HIV-1 replication (p24)", "setting": "HIV-1 strain IIIB", "value": "protective to a lesser extent than retrocyclin"}, {"measurement": "EC50", "setting": "MTT cytotoxicity assay", "value": "> 100", "unit": "µg/mL"}]}
{"molecule": "Orang-2: cyclic GVCRC ICGRG VCRCI CRR (SEQ ID NO:134) (cyclo(GVCRCICGRGVCRCICRR); disulfide (positions not given here); ring closure inferred; not fully specified (bridges))", "values": [{"measurement": "potency against HIV-1 IIIB", "setting": "HIV-1 IIIB", "value": "more potent than retrocyclins 1 and 2 and RC101"}, {"measurement": "potency against HIV-1 BAL", "setting": "HIV-1 BAL", "value": "more potent than retrocyclins 1 and 2 and RC101"}]}
{"molecule": "indolicidin", "values": [{"measurement": "concentration reproducibly virucidal against HIV-1", "setting": "HIV-1", "value": 333, "unit": "µg/mL"}]}
